Several values for one entry are separate records, joined by “and”; a condition that tells them apart may be missing. Identical values can stand only once. Like-named read-outs stand apart in the source and are kept apart here.
Experiments:
[1] = system: Test of Randall and Selitto, in rats; experiment: Test of Randall and Selitto in rats; format: in vivo
Description: The analgesic activity of AFP 802 has been studied by means of the writhing test with phenylquinone in mice and by means of the test of Randall and Selitto in rats. Test of Randall and Selitto in rats. This test was carried out according to the method of L. Randall and J. Selitto reported in Arch. Int. Pharmacodyn., 1957 III, 409. […] The variations of pressure tolerated without variation in pain have been determined each hour, for 5 consecutive hours and the results are reported in Table 10.

[2] = system: Pleuritis caused by carrageenan in rats; experiment: Pleuritis caused by carrageenan in rats (Vinegar et al); format: in vivo; settings: for Number of leucocytes × 1,000 / Volume of exudate in cc / Number of leucocytes, % inhibition with respect to the controls / Volume of exudate, % inhibition with respect to the controls: 100 mg/Kg oral
[3] = system: Edema caused by kaolin in rats; experiment: Edema caused by kaolin in rats (Coulon et al); settings: 5 consecutive days
[4] = system: Writhing caused by phenylquinone in mice; experiment: Writhing caused by phenylquinone in mice (Siegmung et al); format: in vivo
Source text: The analgesic activity of AFP 802 has been studied by means of the writhing test with phenylquinone in mice and by means of the test of Randall and Selitto in rats.

[5] = system: gastric mucosa; set-up: species or system rats; settings: rat, in vivo, po
[6] = Organ to plasma ratio of ibuprofen concentrations in rats; format: in vivo; settings: vs administration of ibuprofen
Description: (§1) AFP 802 has been administered orally in the dose of 200 mg/kg in rats. […] The animals are killed in groups of four after the following time periods; 15 minutes, 30 minutes, 1 hour, 2 hours, 4 hours, 6 hours and 24 hours.

[7] = system: subplantar edema caused by carrageenan in rats; experiment: Edema caused by carrageenan in rats (Winter et al); format: in vivo; settings: oral, AFP 802 187 mg/Kg, ibuprofen 100 mg/Kg
Description: The anti-inflammatory activity has been investigated by a series of tests using edema caused by carrageenan and kaolin pleuritis caused by carrageenan and arthritis caused by an adjuvant.
The plyethysmographic observations of the edema have been carried out every hour for a period of 7 hours after the induction of the edema.

[8] = Pharmacokinetics, plasma levels after oral administration in rats; format: in vivo
Description: as §1

[9] = system: Hyperthermia caused by yeast; experiment: Antipyretic activity, hyperthermia caused by yeast in rats (Boissier and Simon); format: in vivo
Source text: The experiment has been carried out in rats in which the body temperature has been increased by means of yeast by the method according to J. R. Boissier and P. Simon (Therapie, 1962, 17, 1225). […] It is, however, necessary to keep in mind the difference in molecular weight between the two substances under examination.

[10] = in vivo; format: in vivo; settings: mouse, in vivo, mice, read-out: DL50 (limit of error 95%)
[11] = system: mice; experiment: in vivo; format: in vivo; settings: mice and rats, particularly by the oral route
[12] = system: Arthritis caused by the adjuvant of Freund in rats; experiment: Arthritis caused by the adjuvant in rats (Winter and Nuss); format: in vivo
Source text: For the evaluation for the efficiency of the substance the following parameters have been considered: diameter of articulations, volume of the hind paws, hematological and hematochemical examination, weight of the suprarenal glands and thymus.

[13] = in vivo; settings: rat, rats, read-out: DL50 (limit of error 95%)
[14] = both paws, area under the curve of the increases, 100 mg/Kg/die oral

Structure (SMILES): COc1cc(C(=O)OCC(C)c2ccc(CC(C)C)cc2)cc(OC)c1OC (centres unmarked) [AFP 802, 2-(4-isobutylphenyl)1-propanol 3,4,5-trimethoxybenzoate]
- % INHIBITION WITH RESPECT TO THE CONTROL, I ([1]; area, inflamed paw, 100 mg/Kg oral): 110.89%
- % INHIBITION WITH RESPECT TO THE CONTROL, NI ([1]; area, not inflamed paw, 100 mg/Kg oral): 46.93%
- AREA ABSOLUTE VALUE, I ([1]; inflamed paw, area of the increase of the pressure tolerated, 100 mg/Kg oral): 11.7 ± 22.1
- activity expressed in percent of inhibition of the area (in words) ([1]; limb in which no injections have been made): fair, lower than the activity of ibuprofen
- activity expressed in percent of inhibition of the area (in words) ([1]; limbs affected by edema): high, superior to the activity of ibuprofen
- AREA ABSOLUTE VALUE, NI ([1]; not inflamed paw, area of the increase of the pressure tolerated, 100 mg/Kg oral): -61.20 ± 16.39
- Number of leucocytes × 1,000 ([2]; 5 hours): 4,804 × 1,000
- Volume of exudate in cc ([2]; 5 hours): 0.56 cc
- Number of leucocytes, % inhibition with respect to the controls ([2]; 5 hours, 100 mg/kg): 71.80% and 72%
- Volume of exudate, % inhibition with respect to the controls ([2]; 5 hours, 100 mg/kg): 43.43% and 43%
- effect in pleuritis compared with ibuprofen (in words) ([2]; 5 hours, equal doses by weight): analogous to the values obtained by administration of equal doses by weight of ibuprofen
- effect in pleuritis (in words) ([2]; 24 hours after the administration): practically unchanged
- Number of leucocytes × 1,000 ([2]; 24 hours): 7,676 × 1,000
- Number of leucocytes, % inhibition with respect to the controls ([2]; 24 hours): 58.05%
- Volume of exudate in cc ([2]; 24 hours): 0.47 cc
- Volume of exudate, % inhibition with respect to the controls ([2]; 24 hours): 48.91%
- % inhibition with respect to the controls ([3]; area, oral every 24 hours, dose AFP 802 115, ibuprofen 60): 44.10%
- inhibition of the inflammation (in words) ([3]; equimolar oral doses): inhibits the inflammation to a substantial extent with values which overlap with the values obtained in the case of ibuprofen
- Area (area under the curve of the increase of the diameter of the articulations) ([3]; oral every 24 hours, dose AFP 802 115, ibuprofen 60): 9799.5 mm^2
- % inhibition with respect to the control ([4]; 100 mg/Kg oral): 78.2%
- No. of Contorsions ([4]; 100 mg/Kg oral): 4.5
- % inhibition with respect to the control ([4]; 200 mg/Kg oral): 89.1%
- No. of Contorsions ([4]; 200 mg/Kg oral): 2.3
- analgesic activity compared with ibuprofen (in words) ([4]; equal weight, oral): equal activity of the two products
- effects of gastric lesion (in words) [5]: almost negligible
- ratio of the organ to the plasma for ibuprofen concentrations (in words) ([6]; kidney): lower in the case of kidney
- ratio of the organ to the plasma for ibuprofen concentrations (in words) ([6]; liver, lungs and uterus): higher in the case of liver, lungs and uterus
- Average volume of the paw ([7]; 0 hours): 22.6
- Average volume of the paw ([7]; 1 hour): 27.9
- Average volume of the paw ([7]; 2 hours): 28.6
- Average volume of the paw ([7]; 3 hours): 28.4
- Average volume of the paw ([7]; 4 hours): 28.9
- Average volume of the paw ([7]; 5 hours): 29.6
- % inhibition vs control ([7]; area): 60.4%
- Area Absolute Value [7]: 119.3
- presence in the blood fluid (in words) ([8]; 15 minutes and 30 minutes after oral 200 mg/kg): presence already after a short period of time in the blood fluid
- area under the curve of the plasma levels of ibuprofen (AUC) (in words) ([8]; AFP 802 200 mg/kg vs ibuprofen 100 mg/kg, oral): substantially similar in the administration of the two substances
- plasma levels of ibuprofen over time (in words) ([8]; ibuprofen after AFP 802 vs ibuprofen in equimolar doses): substantially latent with respect to ibuprofen in equimolar doses
- time when ibuprofen (active metabolite) begins to appear in the blood (in words) ([8]; ibuprofen after oral AFP 802 200 mg/kg): the first hour which is the time when ibuprofen, which is its active metabolite, begins to appear
- bioavailability by the oral route (in words) ([8]; oral 200 mg/kg): readily bioavailability by the oral route
- presence in the blood after the first hour (in words) ([8]; oral 200 mg/kg): found in the blood even after the first hour
- % inhibition with respect to control ([9]; 100 mg/Kg oral): 86.12%
- Rectal temperature ([9]; 1 hour after treatment, 100 mg/Kg oral): 38.22 °C
- Rectal temperature ([9]; 2 hours after treatment, 100 mg/Kg oral): 37.75 °C
- Rectal temperature ([9]; 3 hours after treatment, 100 mg/Kg oral): 37.51 °C
- Rectal temperature ([9]; 4 hours after treatment, 100 mg/Kg oral): 37.16 °C
- Rectal temperature ([9]; 5 hours after treatment, 100 mg/Kg oral): 37.04 °C
- Rectal temperature ([9]; Basal, 100 mg/Kg oral group): 38.73 °C
- antipyretic activity compared with ibuprofen (in words) ([9]; equal dose, oral): only slightly inferior to the activity of an equal dose of ibuprofen
- duration of action compared with ibuprofen (in words) ([9]; rat, in vivo): longer duration of action
- LD50 ([10]; ip, intraperitoneal route): 1750 mg/kg
- LD50 ([10]; oral route): > 4000 mg/kg
- DL50 compared with ibuprofen (in words) [11]: more favorable than ibuprofen particularly by the oral route
- ALBUMIN (%) ([12]; 100 mg/Kg/die oral): 70.3 ± 0.97%
- GLOBULIN (%) α1 ([12]; 100 mg/Kg/die oral): 7.2 ± 0.36%
- GLOBULIN (%) α2 ([12]; 100 mg/Kg/die oral): 6.2 ± 0.38%
- GLOBULIN (%) β1 ([12]; 100 mg/Kg/die oral): 11.7 ± 0.30%
- GLOBULIN (%) β2 ([12]; 100 mg/Kg/die oral): 5.7 ± 0.45%
- GLOBULIN (%) γ ([12]; 100 mg/Kg/die oral): 2.0 ± 0.31%
- Hematocrit ([12]; 100 mg/Kg/die oral): 46.1 ± 0.6
- Red Cells ([12]; 100 mg/Kg/die oral): 5,912.600 ± 1.434 × mm^3
- VES ([12]; 100 mg/Kg/die oral): 0.9 ± 0.1
- Σ Diameter D + S, Area [12, 14]: 2,602.0
- Σ Volume D + S, Area [12, 14]: 15,652
- Σ Diameter D + S, % inhibition ([12]; both paws, 100 mg/Kg/die oral): 71.08%
- Σ Volume D + S, % inhibition ([12]; both paws, 100 mg/Kg/die oral): 47.76%
- activity in adjuvant arthritis (in words) ([12]; oral, 45 consecutive days, 6 days per week): essentially analogous to that of ibuprofen
- Suprarenal ([12]; weight, 100 mg/Kg/die oral): 64.5 ± 3.3 mg
- Thymus ([12]; weight, 100 mg/Kg/die oral): 422.3 ± 19.1 mg
- LD50 ([13]; ip, intraperitoneal route): 193 mg/kg
- LD50 ([13]; oral route): > 4000 mg/kg
